This note sets out measurements from patent publication US5969017A, “Methods of treating or preventing cardiac arrhythmia” (Merck & Co., Inc., priority 1997, dated 1999).

Usually inhibition stands for the change of the read-out against control, counted positive when it falls.

The subject of test [1] is other cardiac K+ channels. In words: Block of the other cardiac K+ channels (IK1, IKr and IKs, summary). In kind it is cell-based, guinea pig. Conditions: summary of Table 2. The method, then: (§1) D. Measurement of IKs IKr and IK1 in Guinea Pig Ventricular Myocytes.
(§2) Guinea pig ventricular myocytes were isolated using a modification of the procedure described by Mitra et al., Am. J. Physiol. 249:H1056-60 (1985). Excised hearts were perfused through the aorta (retrograde fashion) at a rate of 10 ml/min with oxygenated, warmed (37° C.) solutions described below. The heart was initially perfused for 7 minutes with a Tyrode's solution containing, in mM: 132 NaCl, 4 KCl, 1.2 MgCl2, 10 HEPES, 5 glucose, pH=7.2. The heart was then perfused with the same nominally Ca^2+ -free solution containing 150 units/ml Type II collagenase (Worthington) and 0.5 units/ml Type XIV protease (Sigma) for 8 minutes. This perfusate was followed by a Tyrode's solution contianing 0.2 mM CaCl2 (without enzymes) for 5 minutes. The digested ventricles were cut into small pieces and gently shaken until cells were visibly dispersed. The cells were stored at room temperature until use, within 8 hours after isolation.
Microelectrode fabrication:
The suction microelectrode technique described by Giles, W. R. and Shibata, E. F., "Voltage clamp of bull-frog cardiac pacemaker cells: a quantitative analysis of potassium currents", J. Physiol. 368:265-292 (1985) was used to voltage clamp the cells. Microelectrodes were made by using a two stage puller from square bore (1.0 mm o.d.) borosilicate capillary tubing. Pipettes were filled with 0.5 M K gluconate, 25 mM KCl and 5 mM K2 ATP. The electrodes had resistances of 3 to 7 Mohm when filled with this solution. After establishing whole-cell recording mode, negative pressure was maintained on the pipette using a 1 ml gas-tight syringe attached via air tight tubing to the suction port of the microelectrode holder. This minimized dialysis of the cell with the pipette solution.
To record K^+ currents, the cells were bathed in a Ca^2+ -free Tyrode's solution containing […]. […] To record Ca^2+ currents, the cells were bathed in Tyrode's solution containing 1.8 mM Ca^2+ without nisoldipine. The cell chamber was superfused with solutions at a rate of 1-2 ml/minute, while maintaining the temperture at […]. A List EPC-7 clamp amplifier was used to voltage clamp the isolated cells. Series resistance was compensated 40-70%, and current was low-pass filtered at a cut-off frequency of 1 kHz. […] Data was analyzed as % block from control membrane currents.
Nisoldipine was prepared as a 4 mM stock solution in polyethylne glycol 200. […] At the final concentrations used, neither polyethylene glycol 200 nor dimethyl sulfoxide had any effect on any of the measured membrane currents.
Selectivity for block of cardiac K^+ channels, IK1, IKr, and IKs was determined as previously described in guinea pig ventricular myocytes (U.S. Pat. No. 5,428,031).

A further test deals with IK1. The test is described as follows: Voltage clamp block of IK1 in guinea pig ventricular myocytes. In kind it is cell-based. The following applies: 3 μM; guinea pig ventricle. The protocol:
as §1
as §2, with “The digested ventricles were cut into small pieces and gently shaken until cells were visibly dispersed. The cells were stored at room temperature until use, within 8 hours after isolation.” left out
(§3) The suction microelectrode technique described by Giles, W. R. and Shibata, E. F., "Voltage clamp of bull-frog cardiac pacemaker cells: a quantitative analysis of potassium currents", J. Physiol. […]
(§4) To record K^+ currents, the cells were bathed in a Ca^2+ -free Tyrode's solution containing 0.4 mM nisoldipine. […] Data was analyzed as % block from control membrane currents.
(§5) Nisoldipine was prepared as a 4 mM stock solution in polyethylne glycol 200. […] At the final concentrations used, neither polyethylene glycol 200 nor dimethyl sulfoxide had any effect on any of the measured membrane currents. […]

The target in another test is T1, IKr (Cavia porcellus, UniProt O08703).
T1 construct: Guinea pig ventricular myocytes were isolated; endogenous in cells; host or cells: isolated guinea pig ventricular myocytes
T1 sequence (O08703 1-1294): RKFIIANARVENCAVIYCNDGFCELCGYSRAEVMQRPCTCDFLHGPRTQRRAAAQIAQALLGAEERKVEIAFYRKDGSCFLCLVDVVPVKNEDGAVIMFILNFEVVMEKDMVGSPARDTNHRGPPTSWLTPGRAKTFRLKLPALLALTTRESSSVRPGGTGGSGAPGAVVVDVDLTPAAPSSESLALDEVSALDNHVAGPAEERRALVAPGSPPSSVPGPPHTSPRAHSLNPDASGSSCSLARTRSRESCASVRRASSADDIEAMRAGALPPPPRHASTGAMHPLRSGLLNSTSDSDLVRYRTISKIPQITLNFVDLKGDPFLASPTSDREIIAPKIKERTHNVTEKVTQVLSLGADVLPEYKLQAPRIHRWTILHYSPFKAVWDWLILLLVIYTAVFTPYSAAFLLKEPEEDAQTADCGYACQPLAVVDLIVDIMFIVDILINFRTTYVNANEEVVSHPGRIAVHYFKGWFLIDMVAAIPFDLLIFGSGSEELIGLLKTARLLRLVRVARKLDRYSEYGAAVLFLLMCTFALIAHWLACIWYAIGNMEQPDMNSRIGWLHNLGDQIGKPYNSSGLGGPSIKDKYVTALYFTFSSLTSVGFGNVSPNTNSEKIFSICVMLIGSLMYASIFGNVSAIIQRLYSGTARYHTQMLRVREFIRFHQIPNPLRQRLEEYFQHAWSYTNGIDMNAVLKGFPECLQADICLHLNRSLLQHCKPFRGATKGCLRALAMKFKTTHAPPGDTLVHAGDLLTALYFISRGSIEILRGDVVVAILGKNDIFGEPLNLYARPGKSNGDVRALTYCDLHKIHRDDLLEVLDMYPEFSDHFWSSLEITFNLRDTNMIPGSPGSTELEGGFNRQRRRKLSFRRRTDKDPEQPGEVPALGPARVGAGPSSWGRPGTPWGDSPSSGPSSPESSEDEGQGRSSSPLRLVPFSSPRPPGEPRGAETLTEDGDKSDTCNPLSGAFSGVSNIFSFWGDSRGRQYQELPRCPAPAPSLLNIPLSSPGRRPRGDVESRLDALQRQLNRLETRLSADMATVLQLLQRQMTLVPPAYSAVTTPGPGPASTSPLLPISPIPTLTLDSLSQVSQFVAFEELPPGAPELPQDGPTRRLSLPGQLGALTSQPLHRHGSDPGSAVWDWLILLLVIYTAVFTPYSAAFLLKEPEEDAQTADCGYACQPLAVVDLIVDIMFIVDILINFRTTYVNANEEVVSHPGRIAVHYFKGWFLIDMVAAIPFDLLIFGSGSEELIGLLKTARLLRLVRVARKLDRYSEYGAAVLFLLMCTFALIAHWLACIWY
In words: Voltage clamp block of IKr in guinea pig ventricular myocytes. The following applies: guinea pig ventricle. In kind it is cell-based. The protocol:
as §1
as §2, with “The digested ventricles were cut into small pieces and gently shaken until cells were visibly dispersed. The cells were stored at room temperature until use, within 8 hours after isolation.” left out
as §3, §4, §5

The next test deals with T2, IKs (Cavia porcellus, UniProt O70344).
T2 construct: Guinea pig ventricular myocytes were isolated; endogenous in cells; host or cells: isolated guinea pig ventricular myocytes
T2 sequence (O70344 whole entry): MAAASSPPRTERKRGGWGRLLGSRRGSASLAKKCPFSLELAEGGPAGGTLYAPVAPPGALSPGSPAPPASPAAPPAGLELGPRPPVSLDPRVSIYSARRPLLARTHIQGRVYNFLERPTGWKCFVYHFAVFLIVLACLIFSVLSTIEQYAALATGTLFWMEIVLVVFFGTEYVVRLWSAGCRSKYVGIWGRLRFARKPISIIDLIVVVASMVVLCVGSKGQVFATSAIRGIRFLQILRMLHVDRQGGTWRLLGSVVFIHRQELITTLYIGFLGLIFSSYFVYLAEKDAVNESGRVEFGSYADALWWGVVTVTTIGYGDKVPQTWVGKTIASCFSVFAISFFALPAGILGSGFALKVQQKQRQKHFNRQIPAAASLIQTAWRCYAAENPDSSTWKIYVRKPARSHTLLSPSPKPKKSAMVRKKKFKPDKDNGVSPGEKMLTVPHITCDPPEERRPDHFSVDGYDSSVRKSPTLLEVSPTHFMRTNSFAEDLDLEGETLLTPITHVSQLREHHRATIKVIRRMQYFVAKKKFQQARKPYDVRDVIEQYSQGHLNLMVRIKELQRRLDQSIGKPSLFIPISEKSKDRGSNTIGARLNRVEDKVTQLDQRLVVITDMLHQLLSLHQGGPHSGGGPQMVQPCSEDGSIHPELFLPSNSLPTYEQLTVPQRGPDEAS
T2 sequence (Q60409 whole entry partner): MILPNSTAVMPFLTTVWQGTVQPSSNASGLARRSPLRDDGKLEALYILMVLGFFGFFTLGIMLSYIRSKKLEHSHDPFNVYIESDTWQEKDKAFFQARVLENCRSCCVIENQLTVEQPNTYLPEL
The test is described as follows: Voltage clamp block of IKs in guinea pig ventricular myocytes. The following applies: guinea pig ventricle. It is filed as cell-based. The protocol:
as §1
as §2, with “The digested ventricles were cut into small pieces and gently shaken until cells were visibly dispersed. The cells were stored at room temperature until use, within 8 hours after isolation.” left out
as §3, §4, §5

As to `CC1CCC(C(C)C)C(P(=O)(c2ccccc2)c2ccccc2)C1` (stereo not shown) [A, (2-Isopropyl-5-methylcyclohexyl)diphenylphosphine oxide], in test [1], the “blockade of the other cardiac K+ channels (in words)” value (“blockade” for short) is listed as “minimal or absent”. Same read-out and setting: to `Cc1cc(C)c(CP(=O)(c2ccccc2)c2ccccc2)c(-c2ccc(F)c(C)c2)c1` [B, 2-(Diphenylphosphinylmethyl)-4'-fluoro-3,5,3'-trimethyl-biphenyl] belongs “minimal or absent”. As for `COc1ccc(-n2nc(Sc3ccc(Cl)cc3)c(C)c(C#N)c2=O)cc1` [C, 6-(4-Chlorophenylthio)-2-(4-methoxyphenyl)-5-methyl-3-oxo-2,3-dihydropyridazine-4-carbonitrile], the “% Block IK1” value in the test with IK1 was found to be 0%. Also, the inhibition at 3 µM stood at 8.4% on IKr and 0% against IKs. The “blockade” value in test [1] is recorded as “minimal or absent”. As to `COc1ccc(-n2nc(Sc3ccc(C)cc3)c(C)c(C#N)c2=O)cc1` [D], the “blockade” value in test [1] was “minimal or absent”.
